In patent publication US12612407B2, “Imidazo[2,1-f][1,2,4]triazin-4-amine derivatives as TLR7 agonist” (BEIGENE, LTD., priority 2020, dated 2026):

Each compound was assayed against T1, human TLR7 (Homo sapiens, UniProt Q9NYK1) (assay: HEK293-Blue hTLR7 Reporter Assay (QUANTI-BLUE, SEAP readout)). Details: HEK-Blue-hTLR7 cells, 24 hrs treatment, Table 1, B1-B232.
T1 construct: host or cells: HEK293 (HEK-Blue hTLR7)
T1 sequence (Q9NYK1 27-1049): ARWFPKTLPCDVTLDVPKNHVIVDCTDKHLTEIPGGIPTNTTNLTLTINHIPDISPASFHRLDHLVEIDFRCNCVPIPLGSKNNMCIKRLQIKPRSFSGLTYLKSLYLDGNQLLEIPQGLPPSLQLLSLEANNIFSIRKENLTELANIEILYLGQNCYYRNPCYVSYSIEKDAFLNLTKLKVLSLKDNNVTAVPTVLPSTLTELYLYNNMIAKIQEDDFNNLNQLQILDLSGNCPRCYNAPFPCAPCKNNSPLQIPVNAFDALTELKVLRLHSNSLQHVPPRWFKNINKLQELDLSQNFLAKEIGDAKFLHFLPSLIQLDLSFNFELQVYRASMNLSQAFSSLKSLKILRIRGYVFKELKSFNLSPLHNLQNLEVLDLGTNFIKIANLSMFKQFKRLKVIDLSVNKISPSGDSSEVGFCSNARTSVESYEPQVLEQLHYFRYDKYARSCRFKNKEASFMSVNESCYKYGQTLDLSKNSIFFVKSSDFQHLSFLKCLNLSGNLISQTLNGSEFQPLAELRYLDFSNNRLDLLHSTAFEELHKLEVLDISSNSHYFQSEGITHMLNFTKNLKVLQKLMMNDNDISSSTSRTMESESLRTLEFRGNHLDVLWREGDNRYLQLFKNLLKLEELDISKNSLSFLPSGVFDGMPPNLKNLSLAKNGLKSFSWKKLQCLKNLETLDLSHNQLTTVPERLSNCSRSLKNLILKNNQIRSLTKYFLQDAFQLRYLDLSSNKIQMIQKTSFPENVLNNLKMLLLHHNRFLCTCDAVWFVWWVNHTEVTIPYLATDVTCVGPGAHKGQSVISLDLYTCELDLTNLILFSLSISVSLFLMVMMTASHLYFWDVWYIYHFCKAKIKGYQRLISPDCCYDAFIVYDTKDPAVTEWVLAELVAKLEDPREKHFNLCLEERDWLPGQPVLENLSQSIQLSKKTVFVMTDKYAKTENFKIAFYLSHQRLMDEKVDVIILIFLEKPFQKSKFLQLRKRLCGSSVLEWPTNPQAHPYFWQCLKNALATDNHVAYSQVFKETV
Format: cell-based
Method in brief: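 Compound titrations were applied for 24 h at 37° C to reporter HEK293 cells (4×10^4 per well) in which human TLR7 activation drives secreted alkaline phosphatase. Supernatants reacted with Quanti-blue 10-30 min, absorbance read at 620-655 nm, and EC50 derived by sigmoidal curve fitting.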

Compound	EC50 [nM]
CCCCOc1nc(N)c2ncc(Cc3cnc(N4C[C@H]5C[C@@H]4CN5)c(C)c3)n2n1 [Compound B79, 7-((6-((1R,4R)-2,5-diazabicyclo[2.2.1]heptan-2-yl)-5-methylpyridin-3-yl)methyl)-2-butoxyimidazo[2,1-f][1,2,4]triazin-4-amine]	505
C=CCCOc1nc(N)c2ncc(Cc3cnc(N4CCNCC4)c(C)c3)n2n1 [Compound B80, 2-(but-3-en-1-yloxy)-7-((5-methyl-6-(piperazin-1-yl)pyridin-3-yl)methyl)imidazo[2,1-f][1,2,4]triazin-4-amine]	242
CCCCOc1nc(N)c2ncc(Cc3cnc(N4CCN(C(=O)[C@@H](N)Cc5ccccc5)CC4)c(C)c3)n2n1 [Compound B81, (S)-2-amino-1-(4-(5-((4-amino-2-butoxyimidazo[2,1-f][1,2,4]triazin-7-yl)methyl)-3-methylpyridin-2-yl)piperazin-1-yl)-3-phenylpropan-1-one]	4440
CCCCOc1nc(N)c2ncc(Cc3cnc(N4CCC5(CCNC5)CC4)c(C)c3)n2n1 [Compound B82, 2-butoxy-7-((5-methyl-6-(2,8-diazaspiro[4.5]decan-8-yl)pyridin-3-yl)methyl)imidazo[2,1-f][1,2,4]triazin-4-amine]	431
CCCCOc1nc(N)c2ncc(Cc3cnc(N4CCC5(CCCC5)CC4)c(C)c3)n2n1 [Compound B83, 2-butoxy-7-((5-methyl-6-(8-azaspiro[4.5]decan-8-yl)pyridin-3-yl)methyl)imidazo[2,1-f][1,2,4]triazin-4-amine]	> 10000
Cc1cc(Cc2cnc3c(N)nc(NCCC(C)C)nn23)cnc1N1CCNCC1 [Compound B85, N^2-isopentyl-7-((5-methyl-6-(piperazin-1-yl)pyridin-3-yl)methyl)imidazo[2,1-f][1,2,4]triazine-2,4-diamine]	1360
CCCCOc1nc(N)c2ncc(Cc3cnc(N4CCC(N(C)C)C4)c(C)c3)n2n1 (stereo not shown) [Compound B87, 2-butoxy-7-((6-(3-(dimethylamino)pyrrolidin-1-yl)-5-methylpyridin-3-yl)methyl)imidazo[2,1-f][1,2,4]triazin-4-amine]	435
CCCCNc1nc(N)c2ncc(Cc3cnc(N4CCC(N)CC4)c(C)c3)n2n1 [Compound B88, 7-((6-(4-aminopiperidin-1-yl)-5-methylpyridin-3-yl)methyl)-N2-butylimidazo[2,1-f][1,2,4]triazine-2,4-diamine]	61
CCCCOc1nc(N)c2ncc(Cc3cnc(N4CCN(S(=O)(=O)CCC)CC4)c(C)c3)n2n1 [Compound B89, 2-butoxy-7-((5-methyl-6-(4-(propylsulfonyl)piperazin-1-yl)pyridin-3-yl)methyl)imidazo[2,1-f][1,2,4]triazin-4-amine]	> 10000
CCCCOc1nc(N)c2ncc(Cc3ccc(N4CCNCC4)c(C(C)C)c3)n2n1 [Compound B90, 2-butoxy-7-(3-isopropyl-4-(piperazin-1-yl)benzyl)imidazo[2,1-f][1,2,4]triazin-4-amine]	2360
CCCCOc1nc(N)c2ncc(Cc3cnc(N4CCN(CCN)CC4)c(C)c3)n2n1 [Compound B91, 7-((6-(4-(2-aminoethyl)piperazin-1-yl)-5-methylpyridin-3-yl)methyl)-2-butoxyimidazo[2,1-f][1,2,4]triazin-4-amine]	150
CCCCOc1nc(N)c2ncc(Cc3ccc(N4CCNCC4)c(CC)c3)n2n1 [Compound B92, 2-butoxy-7-(3-ethyl-4-(piperazin-1-yl)benzyl)imidazo[2,1-f][1,2,4]triazin-4-amine]	464
CCCOc1nc(N)c2ncc(Cc3cnc(N4CCNCC4)c(C)c3)n2n1 [Compound B93, 7-((5-methyl-6-(piperazin-1-yl)pyridin-3-yl)methyl)-2-propoxyimidazo[2,1-f][1,2,4]triazin-4-amine]	641
CCCC(C)Oc1nc(N)c2ncc(Cc3cnc(N4CCN(C(=O)CN(C)C)CC4)c(C)c3)n2n1 (stereo not shown) [Compound B94, 1-(4-(5-((4-amino-2-(pentan-2-yloxy)imidazo[2,1-f] [1,2,4]triazin-7-yl)methyl)-3-methylpyridin-2-yl)piperazin-1-yl)-2-(dimethylamino)ethan-1-one]	13
CCCCOc1nc(N)c2ncc(Cc3cnc(N4CCC(C(=O)N(C)C)CC4)c(C)c3)n2n1 [Compound B95, 1-(5-((4-amino-2-butoxyimidazo[2,1-f][1,2,4]triazin-7-yl)methyl)-3-methylpyridin-2-yl)-N,N-dimethylpiperidine-4-carboxamide]	4380
CCCCNc1nc(N)c2ncc(Cc3cnc(N4CCC(CN(C)C)CC4)c(C)c3)n2n1 [Compound B96, N2-butyl-7-((6-(4-((dimethylamino)methyl)piperidin-1-yl)-5-methylpyridin-3-yl)methyl)imidazo[2,1-f][1,2,4]triazine-2,4-diamine]	17
CCCCOc1nc(N)c2ncc(Cc3cnc(N4CCN[C@H](C)C4)c(C)c3)n2n1 [Compound B97, (R)-2-butoxy-7-((5-methyl-6-(3-methylpiperazin-1-yl)pyridin-3-yl)methyl)imidazo[2,1-f][1,2,4]triazin-4-amine]	163
CCCCOc1nc(N)c2ncc(Cc3ccc(N4CCN[C@H](C)C4)c(C)c3)n2n1 [Compound B98, (R)-2-butoxy-7-(3-methyl-4-(3-methylpiperazin-1-yl)benzyl)imidazo[2,1-f][1,2,4]triazin-4-amine]	1130
CCCCOc1nc(N)c2ncc(Cc3ccc(N4CCNCC4)c(OCCC)c3)n2n1 [Compound B99, 2-butoxy-7-(4-(piperazin-1-yl)-3-propoxybenzyl)imidazo[2,1-f][1,2,4]triazin-4-amine]	926
COCCOCCOCCOCCOc1nc(N)c2ncc(Cc3cnc(N4CCNCC4)c(C)c3)n2n1 [Compound B100, 2-((2,5,8,11-tetraoxatridecan-13-yl)oxy)-7-((5-methyl-6-(piperazin-1-yl)pyridin-3-yl)methyl)imidazo[2,1-f][1,2,4]triazin-4-amine]	> 10000
CCCCOc1nc(N)c2ncc(Cc3cnc(N4CCC5(CCNCC5)C4)c(C)c3)n2n1 [Compound B101, 2-butoxy-7-((5-methyl-6-(2,8-diazaspiro[4.5]decan-2-yl)pyridin-3-yl)methyl)imidazo[2,1-f][1,2,4]triazin-4-amine]	425
CCCCOc1nc(N)c2ncc(Cc3cnc(N4CC5(CCNCC5)C4)c(C)c3)n2n1 [Compound B102, 2-butoxy-7-((5-methyl-6-(2,7-diazaspiro[3.5]nonan-2-yl)pyridin-3-yl)methyl)imidazo[2,1-f][1,2,4]triazin-4-amine]	464
CCCCOc1nc(N)c2ncc(Cc3cnc(N4CCC(OC)CC4)c(C)c3)n2n1 [Compound B103, 2-butoxy-7-((6-(4-methoxypiperidin-1-yl)-5-methylpyridin-3-yl)methyl)imidazo[2,1-f][1,2,4]triazin-4-amine]	7960
CCCCOc1nc(N)c2ncc(Cc3cnc(N4CCC(COC)CC4)c(C)c3)n2n1 [Compound B104, 2-butoxy-7-((6-(4-(methoxymethyl)piperidin-1-yl)-5-methylpyridin-3-yl)methyl)imidazo[2,1-f][1,2,4]triazin-4-amine]	> 10000
CCCCOc1nc(N)c2ncc(Cc3cnc(N4CCC(CN(C)C)C4)c(C)c3)n2n1 (stereo not shown) [Compound B105, 2-butoxy-7-((6-(3-((dimethylamino)methyl)pyrrolidin-1-yl)-5-methylpyridin-3-yl)methyl)imidazo[2,1-f][1,2,4]triazin-4-amine]	177
CCCCOc1nc(N)c2ncc(Cc3cnc(N4CCC(CNC)CC4)c(C)c3)n2n1 [Compound B106, 2-butoxy-7-((5-methyl-6-(4-((methylamino)methyl)piperidin-1-yl)pyridine-3-yl)methyl)imidazo[2,1-f][1,2,4]triazin-4-amine]	71
CCCCOc1nc(N)c2ncc(Cc3cnc(N4CCN(CCOC)CC4)c(C)c3)n2n1 [Compound B107, 2-butoxy-7-((6-(4-(2-methoxyethyl)piperazin-1-yl)-5-methylpyridin-3-yl)methyl)imidazo[2,1-f][1,2,4]triazin-4-amine]	185
CCCCOc1nc(N)c2ncc(Cc3cnc(N4CCC(N5CCOCC5)CC4)c(C)c3)n2n1 [Compound B108, 2-butoxy-7-((5-methyl-6-(4-morpholinopiperidin-1-yl)pyridine-3-yl)methyl)imidazo[2,1-f][1,2,4]triazin-4-amine]	159
